Columns and labels:
Assay in all cases: Test B pre-/postemergence plant response
Assay type in all cases: in vivo
[1] = system: cocklebur (Xanthium strumarium); conditions: for Cocklebur plant response rating: 8 g ai/ha
Procedure, shortened: (§1)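 Seeds were sown and sprayed preemergence, while plants at 2 to 18 cm (1- to 4-leaf stage) got postemergence sprays. Compounds were formulated in a non-phytotoxic solvent mixture with surfactant. After 13 to 15 days in a greenhouse, injury was rated visually against untreated controls, 0 (no effect) to 100 (complete control).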

[2] = system: giant foxtail (Setaria faberii); conditions: for Foxtail, Giant plant response rating: 8 g ai/ha
Procedure, shortened: as §1

[3] = system: wheat (Triticum aestivum); conditions: for Wheat plant response rating: 8 g ai/ha
Procedure, shortened: as §1

[4] = system: goosegrass (Eleusine indica); conditions: for Goosegrass plant response rating: 8 g ai/ha
Procedure, shortened: as §1

corn (Zea mays) = conditions: for Corn plant response rating: 8 g ai/ha
Procedure, shortened: as §1

[5] = system: Russian thistle (Salsola iberica); conditions: Preemergence
Procedure, shortened: as §1

[6] = system: lambsquarters (Chenopodium album); conditions: for Lambsquarters plant response rating: 8 g ai/ha
Procedure, shortened: as §1

[7] = system: woolly cupgrass (Eriochloa villosa); conditions: for Cupgrass, Woolly plant response rating: 8 g ai/ha
Procedure, shortened: as §1

soybean (Glycine max) = conditions: for Soybean plant response rating: 8 g ai/ha
Procedure, shortened: as §1

[8] = system: green foxtail (Setaria viridis); conditions: for Foxtail, Green plant response rating: 8 g ai/ha
Procedure, shortened: as §1

[9] = system: yellow nutsedge (Cyperus esculentus); conditions: for Nutsedge, Yellow plant response rating: 8 g ai/ha
Procedure, shortened: as §1

[10] = system: velvetleaf (Abutilon theophrasti); conditions: for Velvetleaf plant response rating: 8 g ai/ha
Procedure, shortened: as §1

kochia (Kochia scoparia) = conditions: for Kochia plant response rating: 8 g ai/ha
Procedure, shortened: as §1

[11] = system: bermudagrass (Cynodon dactylon); conditions: for Bermudagrass plant response rating: 8 g ai/ha
Procedure, shortened: as §1

[12] = Postemergence, 16 g ai/ha, scale 0 to 100
[13] = Postemergence, 31 g ai/ha, scale 0 to 100, 0 no effect, 100 complete control
[14] = Postemergence, 62 g ai/ha, scale 0 to 100, 0 no effect, 100 complete control
[15] = Preemergence, 16 g ai/ha, scale 0 to 100 (0 no effect, 100 complete control)
[16] = Preemergence, 31 g ai/ha, 0 to 100 scale, 0 no effect, 100 complete control
[17] = Preemergence, 62 g ai/ha, scale 0 to 100

COC(=O)Oc1cnn(C)c(=O)c1-n1nc(-c2ccc(Cl)cc2)cc1C [Compound 33]
Cocklebur plant response rating ([1]; postemergence, 0-100 scale): 0
Plant response rating, Cocklebur [1, 12]: 0
Plant response rating, Cocklebur [1, 13]: 0
Plant response rating, Cocklebur [1, 14]: 0
Plant response rating, Cocklebur [1, 15]: 0
Plant response rating, Cocklebur [1, 16]: 0
Cocklebur plant response rating ([1]; Preemergence, scale 0 to 100): 0
Foxtail, Giant plant response rating ([2]; postemergence, 0-100 scale): 100
Plant response rating, Foxtail, Giant [2, 12]: 100
Plant response rating, Foxtail, Giant [2, 13]: 100
Plant response rating, Foxtail, Giant [2, 14]: 100
Plant response rating, Foxtail, Giant [2, 15]: 100
Plant response rating, Foxtail, Giant [2, 16]: 100
Plant response rating, Foxtail, Giant [2, 17]: 100
Foxtail, Giant plant response rating ([2]; Preemergence, scale 0 to 100): 100
Wheat plant response rating ([3]; postemergence, 0-100 scale): 20
Plant response rating, Wheat [3, 12]: 70
Plant response rating, Wheat [3, 14]: 98
Plant response rating, Wheat [3, 15]: 0
Plant response rating, Wheat [3, 16]: 50
Plant response rating, Wheat [3, 17]: 80
Wheat plant response rating ([3]; Preemergence, scale 0 to 100): 0
Goosegrass plant response rating ([4]; postemergence, 0-100 scale): 50
Plant response rating, Goosegrass [4, 12]: 70
Plant response rating, Goosegrass [4, 13]: 90
Plant response rating, Goosegrass [4, 14]: 100
Plant response rating, Goosegrass [4, 15]: 98
Plant response rating, Goosegrass [4, 16]: 98
Plant response rating, Goosegrass [4, 17]: 98
Goosegrass plant response rating ([4]; Preemergence, scale 0 to 100): 85
Corn plant response rating (corn (Zea mays); postemergence, 0-100 scale): 80
Plant response rating, Corn (corn (Zea mays); [12]): 95
Plant response rating, Corn (corn (Zea mays); [13]): 100
Plant response rating, Corn (corn (Zea mays); [14]): 100
Plant response rating, Corn (corn (Zea mays); [15]): 85
Plant response rating, Corn (corn (Zea mays); [16]): 90
Plant response rating, Corn (corn (Zea mays); [17]): 95
Corn plant response rating (corn (Zea mays); Preemergence, scale 0 to 100): 50
Plant response rating, Russian Thistle ([5]; 16 g ai/ha, scale 0 to 100 (0 no effect, 100 complete control)): 0
Plant response rating, Russian Thistle ([5]; 31 g ai/ha, 0 to 100 scale, 0 no effect, 100 complete control): 0
Plant response rating, Russian Thistle ([5]; 62 g ai/ha, scale 0 to 100): 80
Russian Thistle plant response rating ([5]; 8 g ai/ha, scale 0 to 100): 0
Lambsquarters plant response rating ([6]; postemergence, 0-100 scale): 0
Plant response rating, Lambsquarters [6, 12]: 0
Plant response rating, Lambsquarters [6, 13]: 0
Plant response rating, Lambsquarters [6, 14]: 0
Plant response rating, Lambsquarters [6, 15]: 0
Plant response rating, Lambsquarters [6, 16]: 0
Plant response rating, Lambsquarters [6, 17]: 0
Lambsquarters plant response rating ([6]; Preemergence, scale 0 to 100): 0
Cupgrass, Woolly plant response rating ([7]; postemergence, 0-100 scale): 98
Plant response rating, Cupgrass, Woolly [7, 12]: 100
Plant response rating, Cupgrass, Woolly [7, 13]: 100
Plant response rating, Cupgrass, Woolly [7, 14]: 100
Plant response rating, Cupgrass, Woolly [7, 15]: 90
Plant response rating, Cupgrass, Woolly [7, 16]: 100
Plant response rating, Cupgrass, Woolly [7, 17]: 100
Cupgrass, Woolly plant response rating ([7]; Preemergence, scale 0 to 100): 80
Soybean plant response rating (soybean (Glycine max); postemergence, 0-100 scale): 0
Plant response rating, Soybean (soybean (Glycine max); [12]): 0
Plant response rating, Soybean (soybean (Glycine max); [14]): 0
Plant response rating, Soybean (soybean (Glycine max); [15]): 0
Plant response rating, Soybean (soybean (Glycine max); [16]): 0
Plant response rating, Soybean (soybean (Glycine max); [17]): 0
Soybean plant response rating (soybean (Glycine max); Preemergence, scale 0 to 100): 0
Foxtail, Green plant response rating ([8]; postemergence, 0-100 scale): 85
Plant response rating, Foxtail, Green [8, 12]: 85
Plant response rating, Foxtail, Green [8, 13]: 100
Plant response rating, Foxtail, Green [8, 14]: 100
Plant response rating, Foxtail, Green [8, 15]: 100
Plant response rating, Foxtail, Green [8, 16]: 100
Plant response rating, Foxtail, Green [8, 17]: 100
Foxtail, Green plant response rating ([8]; Preemergence, scale 0 to 100): 100
Nutsedge, Yellow plant response rating ([9]; postemergence, 0-100 scale): 0
Plant response rating, Nutsedge, Yellow [9, 12]: 0
Plant response rating, Nutsedge, Yellow [9, 13]: 0
Plant response rating, Nutsedge, Yellow [9, 14]: 0
Plant response rating, Nutsedge, Yellow [9, 15]: 0
Plant response rating, Nutsedge, Yellow [9, 16]: 0
Plant response rating, Nutsedge, Yellow [9, 17]: 0
Nutsedge, Yellow plant response rating ([9]; Preemergence, scale 0 to 100): 0
Velvetleaf plant response rating ([10]; postemergence, 0-100 scale): 0
Plant response rating, Velvetleaf [10, 12]: 0
Plant response rating, Velvetleaf [10, 14]: 5
Plant response rating, Velvetleaf [10, 15]: 0
Plant response rating, Velvetleaf [10, 16]: 0
Velvetleaf plant response rating ([10]; Preemergence, scale 0 to 100): 0
Kochia plant response rating (kochia (Kochia scoparia); postemergence, 0-100 scale): 0
Plant response rating, Kochia (kochia (Kochia scoparia); [12]): 0
Plant response rating, Kochia (kochia (Kochia scoparia); [13]): 0
Plant response rating, Kochia (kochia (Kochia scoparia); [14]): 0
Plant response rating, Kochia (kochia (Kochia scoparia); [16]): 0
Plant response rating, Kochia (kochia (Kochia scoparia); [17]): 0
Kochia plant response rating (kochia (Kochia scoparia); Preemergence, scale 0 to 100): 0
Bermudagrass plant response rating ([11]; postemergence, 0-100 scale): 70
Plant response rating, Bermudagrass [11, 12]: 100
Plant response rating, Bermudagrass [11, 13]: 100
Plant response rating, Bermudagrass [11, 14]: 100
Bermudagrass plant response rating ([11]; Preemergence, scale 0 to 100 (0 no effect, 100 complete control)): 80
Plant response rating, Bermudagrass [11, 15]: 98
Plant response rating, Bermudagrass [11, 16]: 100
Plant response rating, Bermudagrass [11, 17]: 100

Source: US20100267561A1, “HERBICIDAL PYRIDAZINONE DERIVATIVES” (priority 2007, published 2010)
